Data published in patent US11612560B2, “Treatment of Raynaud's phenomenon by inhibition of transient receptor potential melastatin-8 (TRPM-8)” (The University of Toledo, priority 2015, dated 2023).
“Also recorded” adds a separate entry of the source.

Legend:
[1] = biological target: T1, TRPM8 (Homo sapiens, UniProt Q7Z2W7); experiment: MVEC gene expression (ET1, NOS3, PTGIS mRNA) by qPCR after TRPM8 activation; format: cell-based
T1 construct: Human MVEC express functional TRPM8; endogenous in cells; host or cells: human microvascular endothelial cells (normal MVEC and SSc-MVEC)
T1 sequence (Q7Z2W7 whole entry): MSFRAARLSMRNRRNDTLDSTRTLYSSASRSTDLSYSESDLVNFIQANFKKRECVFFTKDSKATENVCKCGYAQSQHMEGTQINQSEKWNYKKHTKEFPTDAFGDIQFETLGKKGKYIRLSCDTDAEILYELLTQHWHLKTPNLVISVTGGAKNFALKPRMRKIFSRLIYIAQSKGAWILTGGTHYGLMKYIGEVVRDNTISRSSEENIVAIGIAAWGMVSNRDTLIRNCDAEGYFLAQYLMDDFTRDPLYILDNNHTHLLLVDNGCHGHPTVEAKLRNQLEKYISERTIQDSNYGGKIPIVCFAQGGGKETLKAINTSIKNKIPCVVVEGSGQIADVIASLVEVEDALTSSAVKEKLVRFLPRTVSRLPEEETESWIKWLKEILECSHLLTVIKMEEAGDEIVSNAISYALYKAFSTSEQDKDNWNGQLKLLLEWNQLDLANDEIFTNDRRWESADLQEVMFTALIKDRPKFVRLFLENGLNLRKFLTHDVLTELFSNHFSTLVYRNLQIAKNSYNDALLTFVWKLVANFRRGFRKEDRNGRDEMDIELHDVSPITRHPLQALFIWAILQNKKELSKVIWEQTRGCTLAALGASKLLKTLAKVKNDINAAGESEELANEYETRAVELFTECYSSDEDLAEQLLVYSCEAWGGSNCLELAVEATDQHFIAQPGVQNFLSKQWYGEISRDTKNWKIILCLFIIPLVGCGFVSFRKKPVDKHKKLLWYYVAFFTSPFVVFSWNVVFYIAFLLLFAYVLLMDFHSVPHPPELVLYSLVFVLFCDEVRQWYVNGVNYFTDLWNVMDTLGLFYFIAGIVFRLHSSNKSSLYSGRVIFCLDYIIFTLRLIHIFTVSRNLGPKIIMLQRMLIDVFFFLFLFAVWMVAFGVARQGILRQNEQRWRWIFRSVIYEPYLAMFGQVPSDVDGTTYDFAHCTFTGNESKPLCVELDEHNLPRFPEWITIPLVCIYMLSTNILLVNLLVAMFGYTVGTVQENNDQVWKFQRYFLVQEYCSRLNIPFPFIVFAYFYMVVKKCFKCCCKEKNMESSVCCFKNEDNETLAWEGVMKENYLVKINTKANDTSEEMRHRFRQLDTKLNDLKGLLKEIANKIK
Experimental: FIGS. 4A-4C: Effects of cold exposure on ET1 (FIG. 4A), NOS3 (FIG. 4B), and PTGIS (FIG. 4C) mRNA expression. Normal MVECs were exposed to 18° C. temperature for 1 hr. The mRNA expression levels were measured by qPCR.
FIGS. 5A-5C: Effects of Menthol on ET1 (FIG. 5A), NOS3 (FIG. 5B), and PTGIS (FIG. 5C) mRNA expression. Normal endothelial cells were treated with menthol (MT) at 20 μM, 100 μM, and 500 μM with and without capsazepine (CapZ) for 24 hours. The mRNA expression levels were measured by qPCR.
The effect of exposure of normal MVEC to […] on MVEC gene expression was evaluated. Specifically, gene expression levels of NOS3, PTGIS, and ET1 in MVEC were evaluated in response to TRPM8 activation by cold exposure (FIGS. 4A-4C) and menthol (FIGS. 5A-5C) with and without Capsazepine, which is one of the TRPM8 receptor inhibitors.
Thus, the use of TRPM8 antagonists can be an effective strategy for treatment Raynaud's phenomenon in SSc patients.

[2] = biological target: T1, TRPM8; experiment: Intracellular calcium (Ca2+ influx) in MVEC, Fluo-4AM microfluorometry; format: cell-based
Experimental: FIG. 2: Pharmacological activation of TRPM8 in human microvascular endothelial cells. […] ATP was used as the positive control.
FIG. 3: Effects of menthol on intracellular calcium level in NL-MVECs and SSc-MVECs. Cells were loaded with 2 μM calcium indicator dye Fluo-4AM for 1 hour and treated with menthol with and without capsazepine for 10 minutes and then observed under microscope.
To evaluate the functional role of TRPM8 in MVECs, the intracellular calcium ([Ca^2+]) influx into MVEC by Ca^2+ was evaluated by microfluorometry studies in response to the addition of menthol or exposure to cold, which are known to activate TRPM8 (FIG. 2).
The effect of menthol is abrogated by the use of Capsazepine, a TRPM8 receptor inhibitor. These findings indicate that TRPM8 mediates functional effects in MVEC that are mediated by calcium influx, which is antagonized by the use of Capsazepine.

[3] = Storage stability of capsazepine; format: physicochemical; details: long term storage recommended at −20° C.
[4] = tested on: patients with Raynaud's phenomenon; experiment: Cold challenge test with infrared thermography of digital blood flow after topical application; format: in vivo, human
Text: A FLIR thermography system (Wilsonville, Oreg.) was used to evaluate blood flow in the digits in response to a cold challenge test in addition to PPG. The advantage of combining the two modalities is that both (i) a dynamic assessment of blood flow in the hands as reflected by changes in temperature in response to cold challenge tests, as well as (ii) the ability to obtain single point measurements, can be achieved.
FIGS. 8A-8B show the local application of econazole to the left index finger, and clotrimazole to the ring finger, for 15 minutes before cold exposure (FIG. 8A). […] Note the red color that depicts higher temperature of skin on the left index finger in the right panel of FIG. 8B.
Gel formulations of 3% econazole and 3% clotrimazole were prepared, then applied to the index and ring fingers (respectively) of the left hand of patients with Raynaud's phenomenon. The topical application was left for 15 minutes on the fingers, before inducing Raynaud's phenomenon by a cold challenge test. The digital blood flow was analyzed by infrared thermography.

[5] = activation of TRPM8 in MVEC by cold temperature or by menthol, qPCR

Question: With Oc1cc2c(cc1O)CN(C(=S)NCCc1ccc(Cl)cc1)CCC2 [capsazepine] as the compound, how does the “effect on cold/menthol-induced changes of ET1, NOS3 and PTGIS expression” value ([1]; MVEC, addition of TRPM8 antagonist) read?
Answer: normalization of gene expression levels; also recorded: reversed; also recorded: near normalization

Question: What about the “effect on menthol-induced intracellular calcium increase” value ([2]; menthol with capsazepine, 10 minutes, NL-MVECs and SSc-MVECs) of the same compound?
Answer: abrogated

Question: And the “stability at room temperature” value [3]?
Answer: not stable at room temperature

Question: Which “cold induced decrease in blood flow to the fingers” value ([4]; 3% gel on left index finger, 15 minutes before cold challenge, infrared thermography) does the source give for Clc1ccc(COC(Cn2ccnc2)c2ccc(Cl)cc2Cl)cc1 (centres unmarked) [econazole] here?
Answer: prevented the cold induced decrease in blood flow

Question: What about the “subjective feeling of finger coldness by patient report” value ([4]; after topical application and cold challenge) of the same compound?
Answer: less finger coldness

Question: What about the “finger temperature in thermal image after cold exposure” value ([4]; local application to left index finger for 15 minutes before cold exposure) of the same compound?
Answer: warmer than the other fingers

Question: For CC1CCC(C(C)C)C(O)C1 (centres unmarked) [menthol], which NOS3 expression reduction [1, 5] is on record?
Answer: 62%

Question: And the PTGIS expression reduction [1, 5]?
Answer: 61%

Question: And the “increase in expression of ET1” value [1, 5]?
Answer: 2.4 folds

Question: What about the “Ca2+ influx in MVEC” value ([2]; 500 μM/L menthol, human microvascular endothelial cells) of the same compound?
Answer: increase in Ca^2+ influx

Question: What about the intracellular calcium levels ([2]; SSc MVEC and healthy MVEC, Fluo-4AM, 10 minutes) of the same compound?
Answer: increases intracellular calcium levels
